Results as given in patent publication US20240092779A1, “USP1 INHIBITORS AND USES THEREOF” (Zentaur Therapeutics USA Inc., priority 2022, published 2024).
≈ marks a conversion by molar mass, not a printed value.

Assays:
[1] = Liver microsomal stability (HLM); assay type: in vitro ADME; settings: human, liver microsomes, human liver microsomes 0.5 mg/mL, 1 μM compound, NADPH
[2] = Solubility in FaSSIF (Fasted State Simulated Intestinal Fluid); assay type: physicochemical; settings: kinetic from dmso stock, FaSSIF pH 6.5, 25° C.
In short: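 Apparent solubility measured in FaSSIF at pH 6.5 from a 10 mM DMSO stock, shaken at 25° C, 1100 RPM for 2 h and then filtered. Filtrate quantified by LC/MS/MS against a 3 μM standard with internal standard, corrected by dilution factor.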

MDA-MB-436 cells = experiment: CTG Protocol (MDA-MB-436 GI50), antiproliferative activity; assay type: cell-based, human; settings: Homo sapiens, 168 h; MDA-MB-436 cells (BRCA1 mutation), 7-day incubation, CellTiter-Glo
In short: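 BRCA1-mutant MDA-MB-436 cells were seeded at 1000 cells/well in DMEM, left overnight, then exposed to a 9-point, 3-fold compound series for 7 days at 37 °C, 5% CO2. Viability was read by CellTiter-Glo luminescence. % inhibition was plotted against concentration to derive GI50.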

microsomal CLint at 1 μM [1] | solubility at 2 h [2] | GI50 (MDA-MB-436 cells) | Compound
< 10 µL/min/mg | 10 to 100 µM (≈ 6.55 to 65.5 µg/mL) | < 10 nM | COc1ncnc(C2CC2)c1-c1ncc2cc(-c3c(C)noc3C)c(=O)n(Cc3ccc(-c4nc(C(F)(F)F)cn4C4CC4)cc3)c2n1 [Compound I-155]
< 10 µL/min/mg | ≥ 100 µM | < 10 nM | COc1ncnc(C2CC2)c1-c1nc(C)c2cc(-c3cnn(C)c3)c(=O)n(Cc3ccc(-c4nc(C(F)(F)F)cn4C4CC4)cc3)c2n1 [Compound I-148, 8-({4-[1-Cyclopropyl-4-(Trifluoromethyl)Imidazol-2-Yl]Phenyl}Methyl)-2-(4-Cyclopropyl-6-Methoxypyrimidin-5-Yl)-4-Methyl-6-(1-Methylpyrazol-4-Yl)Pyrido[2,3-d]Pyrimidin-7-One]
< 10 µL/min/mg | ≥ 100 µM | 10 to 100 nM | COc1ncnc(C2CC2)c1-c1ncc2cc(-c3ncnn3C)c(=O)n(Cc3ccc(-c4nc(C(F)(F)F)cn4C4CC4)cc3)c2n1 [Compound I-156]
< 10 µL/min/mg | 10 to 100 µM (≈ 6.55 to 65.5 µg/mL) | 10 to 100 nM | COc1ncnc(C2CC2)c1-c1nc(C)c2cc(-c3ncnn3C)c(=O)n(Cc3ccc(-c4nc(C(F)(F)F)cn4C4CC4)cc3)c2n1 [Compound I-167, 8-({4-[1-Cyclopropyl-4-(Trifluoromethyl)Imidazol-2-Yl]Phenyl}Methyl)-2-(4-Cyclopropyl-6-Methoxypyrimidin-5-Yl)-4-Methyl-6-(2-Methyl-1,2,4-Triazol-3-Yl)Pyrido[2,3-d]Pyrimidin-7-One]

Second part, the compound before the results:

Compound | microsomal CLint at 1 μM [1] | solubility at 2 h [2] | GI50 (MDA-MB-436 cells)
COc1cc(Cn2c(=O)ccc3c(C)nc(-c4c(OC)ncnc4C4CC4)nc32)cc(F)c1-c1nc(C(F)(F)F)cn1C1CC1 [Compound I-163] | < 10 µL/min/mg | 10 to 100 µM (≈ 6.22 to 62.2 µg/mL) | < 10 nM
COc1ncnc(C2CC2)c1-c1ncc2ccc(=O)n(Cc3ccc(-c4nc(C(F)(F)F)cn4C(C)C)cc3)c2c1F [Compound I-27, 7-(4-cyclopropyl-6-methoxypyrimidin-5-yl)-8-fluoro-1-({4-[1-isopropyl-4-(trifluoromethyl)imidazol-2-yl]phenyl}methyl)-1,6-naphthyridin-2-one] | < 10 µL/min/mg | < 10 µM | 10 to 100 nM
COc1ncnc(C2CC2)c1-c1ncc2cc(-c3cnn(C)n3)c(=O)n(Cc3ccc(-c4nc(C(F)(F)F)cn4C4CC4)cc3)c2n1 [Compound I-151] | < 10 µL/min/mg | 10 to 100 µM (≈ 6.41 to 64.1 µg/mL) | 10 to 100 nM
COc1ncnc(C2CC2)c1-c1nc(C)c2cc(C3CCN(C)CC3)c(=O)n(Cc3ccc(-c4nc(C(F)(F)F)cn4C4CC4)cc3)c2n1 [Compound I-157, 8-({4-[1-Cyclopropyl-4-(Trifluoromethyl)Imidazol-2-Yl]Phenyl}Methyl)-2-(4-Cyclopropyl-6-Methoxypyrimidin-5-Yl)-4-Methyl-6-(1-Methylpiperidin-4-Yl)Pyrido[2,3-d]Pyrimidin-7-One] | < 10 µL/min/mg | ≥ 100 µM | < 10 nM
COc1ncnc(C2CC2)c1-c1ncc2cc(-c3ncnn3C)c(=O)n(Cc3ccc(-c4nc(C(F)(F)F)cn4C(C)C)cc3)c2n1 [Compound I-168, 2-(4-Cyclopropyl-6-Methoxypyrimidin-5-Yl)-8-({4-[1-Isopropyl-4-(Trifluoromethyl)Imidazol-2-Yl]Phenyl}Methyl)-6-(2-Methyl-1,2,4-Triazol-3-Yl)Pyrido[2,3-d]Pyrimidin-7-One] | < 10 µL/min/mg | 10 to 100 µM (≈ 6.43 to 64.3 µg/mL) | 10 to 100 nM
COc1ncnc(C2CC2)c1-c1ncc2cc(-c3ncn(C)n3)c(=O)n(Cc3ccc(-c4nc(C(F)(F)F)cn4C4CC4)cc3)c2n1 [Compound I-153, 8-({4-[1-cyclopropyl-4-(trifluoromethyl)imidazo]-2-yl]phenylmethyl)-2-(4-cyclopropyl-6-methoxypyrimidin-5-yl)-6-(1-methyl-1,2,4-triazol-3-yl)pyrido[2,3-d]pyrimidin-7-one] | < 10 µL/min/mg | ≥ 100 µM | 10 to 100 nM
COc1ncnc(C2CC2)c1-c1ncc2ccc(=O)n(Cc3ccc(-c4cccc(C(F)(F)F)n4)cc3)c2n1 [Compound I-36, 2-(4-cyclopropyl-6-methoxypyrimidin-5-yl)-8-({4-[6-(trifluoromethyl)pyridin-2-yl]phenyl}methyl)pyrido[2,3-d]pyrimidin-7-one] | 10 to 50 µL/min/mg | < 10 µM | 10 to 100 nM
COc1ncnc(C2CC2)c1-c1ncc2cc(-c3cn(C)nn3)c(=O)n(Cc3ccc(-c4nc(C(F)(F)F)cn4C4CC4)cc3)c2n1 [Compound I-150] | < 10 µL/min/mg | 10 to 100 µM (≈ 6.41 to 64.1 µg/mL) | 10 to 100 nM
COc1cc(Cn2c(=O)ccc3c(C)nc(-c4c(OC)ncnc4C4CC4)nc32)ccc1-c1nc(C(F)(F)F)cn1C1CC1 [Compound I-152, 8-({4-[1-cyclopropyl-4-(trifluoromethyl)imidazo]-2-yl]-3-methoxyphenylmethyl)-2-(4-cyclopropyl-6-methoxypyrimidin-5-yl)-4-methylpyrido[2,3-d]pyrimidin-7-one] | < 10 µL/min/mg | ≥ 100 µM | < 10 nM
